# Reference: patent publication US20210179543A1, “CALPAIN-2 SELECTIVE INHIBITOR COMPOUNDS FOR TREATMENT OF GLAUCOMA” (Western University of Health Sciences, priority 2018, published 2021)
# pIC50, pKi: −log10 of the molar value.
# How the values were obtained:
# calpain-2 [1] = molecular target: T1, calpain-2 (Homo sapiens, UniProt P17655); test: in vitro calpain assay with succinic-Leu-Tyr-AMC, calpain-2; format: biochemical; conditions: for pIC50 / pKi: human calpain-2, succinic-Leu-Tyr-AMC
# T1 sequence (P17655 1-700): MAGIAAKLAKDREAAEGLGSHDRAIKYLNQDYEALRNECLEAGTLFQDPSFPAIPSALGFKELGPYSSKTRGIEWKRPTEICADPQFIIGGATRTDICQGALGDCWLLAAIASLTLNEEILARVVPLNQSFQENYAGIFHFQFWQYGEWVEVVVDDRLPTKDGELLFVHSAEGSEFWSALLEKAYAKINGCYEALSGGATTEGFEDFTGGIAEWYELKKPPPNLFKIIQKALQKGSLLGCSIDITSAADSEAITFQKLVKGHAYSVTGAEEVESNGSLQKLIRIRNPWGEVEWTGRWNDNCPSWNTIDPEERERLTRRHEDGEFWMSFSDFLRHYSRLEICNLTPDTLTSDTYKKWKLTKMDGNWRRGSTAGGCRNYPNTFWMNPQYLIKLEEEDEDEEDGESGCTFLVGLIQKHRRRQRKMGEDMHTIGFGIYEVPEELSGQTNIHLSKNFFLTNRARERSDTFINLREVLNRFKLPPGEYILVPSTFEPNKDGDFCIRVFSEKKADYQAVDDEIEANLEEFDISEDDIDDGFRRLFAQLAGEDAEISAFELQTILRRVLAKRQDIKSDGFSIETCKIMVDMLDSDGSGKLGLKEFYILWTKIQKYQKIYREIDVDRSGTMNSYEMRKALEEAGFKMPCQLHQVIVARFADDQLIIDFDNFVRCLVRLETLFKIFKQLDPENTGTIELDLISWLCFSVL
# T1 sequence (P04632 1-268 partner): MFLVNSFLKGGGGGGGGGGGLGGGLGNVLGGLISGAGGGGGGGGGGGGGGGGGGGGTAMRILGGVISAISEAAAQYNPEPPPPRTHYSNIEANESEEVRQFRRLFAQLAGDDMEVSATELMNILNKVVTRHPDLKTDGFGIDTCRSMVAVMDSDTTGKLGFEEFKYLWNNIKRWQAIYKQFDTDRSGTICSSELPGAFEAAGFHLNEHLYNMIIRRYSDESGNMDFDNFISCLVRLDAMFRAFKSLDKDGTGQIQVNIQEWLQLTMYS
# Description: (§1) NA115A (Compound 15 (S above) was introduced at various concentrations into an in vitro mix comprising succinic-Leu-Tyr-AMC and human calpain-1 or calpain-2 (Sasaki et al, 1984), and the kinetics of the […] of fluorescence were determined for each of the calpains. The Kis of NA115, NA115A and NA115B for calpain-1 and calpain-2 are shown in Tables 1-2 below. The efficacy of NA115 against calpain-1 or calpain-2 appears to be only in NA115A.
# human calpain-1 = molecular target: T2, human calpain-1 (Homo sapiens, UniProt P07384); test: in vitro calpain assay with succinic-Leu-Tyr-AMC, calpain-1; format: biochemical; conditions: human calpain-1, succinic-Leu-Tyr-AMC
# T2 sequence (P07384 1-714): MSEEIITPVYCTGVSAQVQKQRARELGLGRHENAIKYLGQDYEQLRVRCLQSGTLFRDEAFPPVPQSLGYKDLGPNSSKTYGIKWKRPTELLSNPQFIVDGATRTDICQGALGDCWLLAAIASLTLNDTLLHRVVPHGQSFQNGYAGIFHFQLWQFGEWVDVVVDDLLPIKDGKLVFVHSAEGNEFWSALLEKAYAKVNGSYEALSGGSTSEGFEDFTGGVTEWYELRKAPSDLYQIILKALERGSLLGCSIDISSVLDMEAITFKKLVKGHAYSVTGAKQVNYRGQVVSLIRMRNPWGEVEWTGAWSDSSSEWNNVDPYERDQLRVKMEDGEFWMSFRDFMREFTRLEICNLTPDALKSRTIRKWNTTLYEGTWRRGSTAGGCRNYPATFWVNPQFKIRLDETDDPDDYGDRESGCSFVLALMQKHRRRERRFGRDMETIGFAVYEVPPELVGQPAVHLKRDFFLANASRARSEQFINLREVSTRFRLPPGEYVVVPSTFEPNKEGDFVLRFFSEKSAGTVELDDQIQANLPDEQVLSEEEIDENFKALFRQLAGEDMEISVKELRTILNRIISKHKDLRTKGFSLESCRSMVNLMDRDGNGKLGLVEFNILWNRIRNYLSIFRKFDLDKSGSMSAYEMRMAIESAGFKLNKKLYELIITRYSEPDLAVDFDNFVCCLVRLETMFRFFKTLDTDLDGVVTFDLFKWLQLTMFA
# T2 sequence (P04632 1-268 partner): T1 sequence (P04632 1-268 partner)
# Description: as §1
# calpain-2 [2] = molecular target: T1, calpain-2; test: IC50 on calpain-1 and calpain-2 activities (Wang et al., 2014), selectivity; format: biochemical
# Description: These compounds can be calpain-2 selective inhibitors. […] IC50 values for NA115 on the activity of calpain-1 and calpain-2 activities were measured (Wang et al., 2014). […] The selectivity of NA117 was 24.1. [0016] Pharmaceutical compositions of the invention comprise NA115 and NA117, and a pharmaceutically acceptable excipient. Excipients used in pharmaceutical composition of the invention are safe and provide the appropriate delivery for the desired route of administration, of an effective amount of NA115 and NA117.
# [3] = test system: calpain-2 activation in the retina; test: acute glaucoma model (increased IOP), SBDP immunohistochemistry in retina; format: in vivo; conditions: mouse
# Description: Immunohistochemistry for SBDP (green) in sections from a sham animal (surgery only), animal subjected to increased IOP and injected intraocularly with vehicle (10% DMSO in PBS, 1 μl; IOP)), increased IOP and injected with NA115 (40 μM, 100 μM, and 200 μM). Blue staining represents cell nuclear staining with the retinal ganglion cells on the upper layer.
# For each image, mean fluorescence intensity (MFI) is analyzed in the inner plexiform layer (layer between the 2 cell body layers in FIG. 1). Three frozen sections (20 μm-thick), cut through the optic disc of each eye, were collected and stained with SBDP antibody. In each section, three images were captured under 60× objective of a confocal microscope (LSM-880). For each image, MFI (mean fluorescence intensities) in the IPL layer were measured in ImageJ and averaged. N=2 animals/group.
# Same experimental procedure as in FIGS. 1-4. NA117 was injectedintraocularly at a concentration of 200 μM). One-way ANOVA followed by Bonferroni test. *p<0.05, **p<0.01. Results are means±SEM of 2 animals. Scale bar=20 microns.
# (§2) The model of acute glaucoma previously reported in Wang et al. (2016) was used. In this model, intraocular pressure (IOP) was increased to 110 mm Hg for 1 h with the mouse under anesthesia. Two h later mice received an intraocular injection of various concentrations of a calpain-2 inhibitor and were returned to their home cages. […]
# retinal ganglion cells = test: acute glaucoma model (increased IOP), beta-III tubulin staining of retinal wholemounts; format: in vivo; conditions: mouse, 200 μM, 1 μl intraocular 2 h after IOP elevation, 3 days after increased IOP
# Description: Immunohistochemistry is shown with staining in the peripheral area of retinal wholemounts, with anti-beta-III tubulin, a marker for retinal ganglion cells, 3 days after increased IOP in a sham animal, an animal subjected to increased IOP and injected with vehicle (10% DMSO in PBS, 1 μl; IOP)) and an animal subjected to increased IOP and injected with NA115 (200 μM). Scale bar=100 microns.
# Vehicle (10% DMSO in PBS, 1 μl) or NA115 (200 μM, 1 μl) was injected 2 h after IOP elevation. Retinal whole mounts were prepared 3 days after the surgery. One-way ANOVA followed by Bonferroni test. ****p<0.0001, **p<0.01. N=8 for Sham. N=7 for IOP, IOP+NA115.
# as §2, with “cages. They were sacrificed 4 h later for determination of calpain activity using immunohistochemistry to stain for the spectrin breakdown product (SBDP) selectively generated by calpain-mediated truncation of spectrin. Previous studies (Wang et al., 2016) have shown that, at this time-point calpain activity represents calpain-2 activity.” for “cages.”
# [4] = plasma stability in mouse plasma; format: in vitro ADME; conditions: mouse plasma; solubilized in 2-Hydroxypropyl)-beta-cyclodextrin or captisol, depending on the solvent
# Description: Stability of NA115 was evaluated with NA115 solubilized in 2-Hydroxypropyl)-beta-cyclodextrin or in captisol.
# Moreover, 1 mM of the NA115 in beta-cyclodextrin was diluted 5 times in freshly prepared mouse plasma (200 μM NA115 in plasma). The mixture was incubated at 37 degree. At indicated time point, 1 μl of the mixture was added to 99 ul of calpain assay solution containing 5 mM Ca2+, 200 μM Suc-Leu-Tyr-AMC substrate and 100 nM calpain-2. Hydrolysis rate was monitored in the plate reader. As a control, 1 μl of plasma alone was subjected to calpain assay and its hydrolysis rate was set as 100% of calpain activity.
# [5] = epimerization in pig vitreous fluid, aliquots tested in the calpain-2 assay; format: in vitro ADME; conditions: 35° C.; for change of inhibitory effect in the calpain-2 assay after incubation: 2 μM, various periods of time
# Description: NA115A or NA115B (2 μM) was incubated with pig vitreous fluid for various periods of time at 35° C. Aliquots were then tested in the calpain-2 assay. […] (FIGS. 9A-9D).
Compound,Ratio KiCalpain-1/KiCalpain-2 (calpain-2 [1]),pIC50 (calpain-2 [1]),pKi (calpain-2 [1]),pIC50 (human calpain-1),pKi (human calpain-1),"selectivity for calpain-2, ratio of IC50 calpain-1/IC50 calpain-2 (calpain-2 [2])","inhibition of calpain-2 activation (SBDP staining) in the retina following increased IOP ([3]; intraocular injection 40 μM, 100 μM, 200 μM, 2 h after IOP elevation, sacrificed 4 h later)",protection of retinal ganglion cells (anti-beta-III tubulin positive cells) from increased IOP-induced cell death (retinal ganglion cells),half-life at 200 μM [4],change of inhibitory effect in the calpain-2 assay after incubation [5],epimerization [5],inhibition of calpain activation (SBDP staining) following increased IOP ([3]; intraocular injection 200 μM)
"CCC(NC(=O)[C@H](CC(C)C)NC(=O)CCc1ccccc1)C(=O)C(=O)NCc1cc(F)cc(OC)c1 (stereo partly drawn) [NA115, N-(3-fluoro-5-methoxybenzyl)-3-((S)-4-methyl-2-(3-phenylpropanamido)-pentanamido)-2-oxopentanamide]",4.5,6.77,6.99,6.12,6.33,31.7,dose-dependently inhibiting calpain-2 activation in the retina following increased IOP,protects against retinal ganglion from increased ocular pressure-induced cell death,9 to 15 h,–,–,–
CC[C@H](NC(=O)[C@H](CC(C)C)NC(=O)CCc1ccccc1)C(=O)C(=O)NCc1cc(F)cc(OC)c1 [NA115A],1.5,6.71,6.91,6.48,6.72,–,–,–,–,rapid decrease in the inhibitory effect,rapid epimerization,–
CC[C@@H](NC(=O)[C@H](CC(C)C)NC(=O)CCc1ccccc1)C(=O)C(=O)NCc1cc(F)cc(OC)c1 [NA115B],–,< 5.00,< 5.00,< 5.00,< 5.00,–,–,–,–,increased inhibitory effect,rapid epimerization,–
"CCC(NC(=O)[C@H](CC(C)C)NC(=O)CCc1ccccc1)C(=O)C(=O)NCc1cccc(OC)c1 (stereo partly drawn) [NA117, N-(3-methoxybenzyl)-3-((S)-4-methyl-2-(3-phenylpropanamido)pentanamido)-2-oxopentanamide]",–,–,–,–,–,24.1,–,–,–,–,–,also inhibits calpain activation following increased IOP
